According to the NIST ThermoML archive (doi:10.1016/j.jct.2015.05.024):

Assay: xn = mol fraction of the nth substance listed
Settings: 100 kPa, Liquid; for speed of sound: Frequency=5 MHz, Pulse-echo method; for mass density: Vibrating tube method

OCCOCCOCCO [triethylene glycol] + O
Settings | mass density [kg/m3] | speed of sound [m/s]
288.15 K, x1 = 0.0107 | 1011.72 | –
288.15 K, x1 = 0.02047 | 1022.17 | –
288.15 K, x1 = 0.03972 | 1040.07 | –
288.15 K, x1 = 0.04979 | 1048.13 | –
288.15 K, x1 = 0.06996 | 1061.93 | –
288.15 K, x1 = 0.09424 | 1075.05 | –
288.15 K, x1 = 0.1045 | – | 1734.9
288.15 K, x1 = 0.1091 | – | 1738.4
288.15 K, x1 = 0.1208 | – | 1745.7
288.15 K, x1 = 0.1237 | – | 1747.2
288.15 K, x1 = 0.1281 | – | 1749.1
288.15 K, x1 = 0.1302 | – | 1750
288.15 K, x1 = 0.133 | – | 1751
288.15 K, x1 = 0.1394 | – | 1753
288.15 K, x1 = 0.1441 | – | 1754.2
288.15 K, x1 = 0.1474 | – | 1754.8
288.15 K, x1 = 0.1481 | 1094.39 | –
288.15 K, x1 = 0.1578 | – | 1756.3
288.15 K, x1 = 0.1678 | – | 1756.8
288.15 K, x1 = 0.1774 | – | 1756.7
288.15 K, x1 = 0.1904 | – | 1755.7
288.15 K, x1 = 0.2006 | 1105.14 | –
288.15 K, x1 = 0.2055 | – | 1753.5
288.15 K, x1 = 0.2329 | – | 1748
288.15 K, x1 = 0.2502 | 1111.33 | –
288.15 K, x1 = 0.2559 | – | 1742.5
288.15 K, x1 = 0.2967 | – | 1731.9
288.15 K, x1 = 0.2988 | 1115.27 | –
288.15 K, x1 = 0.3235 | – | 1725.1
288.15 K, x1 = 0.3492 | 1118.09 | –
288.15 K, x1 = 0.3699 | – | 1714
288.15 K, x1 = 0.3925 | 1119.86 | –
288.15 K, x1 = 0.4089 | – | 1705.2
288.15 K, x1 = 0.4502 | 1121.62 | –
288.15 K, x1 = 0.4877 | 1122.51 | –
288.15 K, x1 = 0.5004 | 1122.77 | –
288.15 K, x1 = 0.5029 | – | 1686.5
288.15 K, x1 = 0.5739 | 1124.05 | –
288.15 K, x1 = 0.58 | 1124.13 | –
288.15 K, x1 = 0.6337 | – | 1667
288.15 K, x1 = 0.6465 | 1124.97 | –
288.15 K, x1 = 0.651 | 1125.02 | –
288.15 K, x1 = 0.7008 | 1125.51 | –
288.15 K, x1 = 0.745 | – | 1657.9
288.15 K, x1 = 0.7471 | 1125.9 | –
288.15 K, x1 = 0.7677 | 1126.06 | –
288.15 K, x1 = 0.82 | 1126.42 | –
288.15 K, x1 = 0.8623 | 1126.68 | –
288.15 K, x1 = 0.8792 | 1126.78 | –
288.15 K, x1 = 0.8795 | – | 1649.6
288.15 K, x1 = 0.8975 | 1126.88 | –
288.15 K, x1 = 0.9203 | 1127.01 | –
288.15 K, x1 = 0.9514 | 1127.17 | –
288.15 K, x1 = 0.9612 | – | 1645.9
288.15 K, x1 = 0.9692 | 1127.27 | –
288.15 K, x1 = 1 | 1127.43 | 1643.9
293.15 K, x1 = 0.000681 | – | 1485.6
293.15 K, x1 = 0.002463 | – | 1494
293.15 K, x1 = 0.005001 | – | 1505.7
293.15 K, x1 = 0.007787 | – | 1518
293.15 K, x1 = 0.01463 | – | 1546.1
293.15 K, x1 = 0.02045 | – | 1567.9
293.15 K, x1 = 0.0276 | – | 1592.1
293.15 K, x1 = 0.03276 | – | 1608
293.15 K, x1 = 0.0418 | – | 1632.7
293.15 K, x1 = 0.04898 | – | 1649.9
293.15 K, x1 = 0.05561 | – | 1664
293.15 K, x1 = 0.06315 | – | 1678
293.15 K, x1 = 0.0678 | – | 1685.8
293.15 K, x1 = 0.0736 | – | 1694.6
293.15 K, x1 = 0.08161 | – | 1705.1
293.15 K, x1 = 0.08886 | – | 1713.2
293.15 K, x1 = 0.09701 | – | 1721
293.15 K, x1 = 0.1043 | – | 1726.7
293.15 K, x1 = 0.1091 | – | 1730
293.15 K, x1 = 0.1142 | – | 1733
293.15 K, x1 = 0.12 | – | 1735.9
293.15 K, x1 = 0.1325 | – | 1740.6
293.15 K, x1 = 0.1374 | – | 1741.9
293.15 K, x1 = 0.1445 | – | 1743.3
